IC50 data for 23 compounds are collected here from US20240327412A1, “FACTOR XIIA INHIBITORS” (KALVISTA PHARMACEUTICALS LIMITED, priority 2021, published 2024).

Holding throughout (format): biochemical
One assay deals with T1, Plasma Kallikrein (Homo sapiens, UniProt P03952).
T1 construct: FXIIa converts plasma prekallikrein (PK) to plasma kallikrein (PKa)
The experiment in a line: Related protease inhibition: Plasma Kallikrein (fluorogenic substrate at Km). The settings on record: class symbols per Table 18, read-out: IC50 (human PKal). The procedure:
(§1) In vitro inhibition of related proteases was determined using an IC50 assay based on standard literature methods (see e.g. Shori et al., Biochem. Pharmacol., 1992, 43, 1209; Bouckaert et al., European Journal of Medicinal Chemistry 110 (2016) 181). Human serine protease enzyme Plasma Kallikrein, KLK1, FXa, Plasmin, Thrombin and Trypsin were assayed for enzymatic activity using an appropriate fluorogenic substrate at Km concentration, FXIa at fixed substrate concentration of 100 μM and various concentrations of the test compound. Protease activity was measured by monitoring the accumulation of liberated fluorescence from the substrate over 5 min at 25° C. The linear rate of fluorescence increase per minute was expressed as percentage (%) activity. IC50 values were calculated as the concentration of inhibitor giving 50% inhibition of the uninhibited enzyme activity (100%).

The target in another assay is T2, Human Factor XIIa (Homo sapiens, UniProt P00748).
T2 construct: Proteolytic cleavage of FXII to heavy and light chains of FXIIa dramatically increases catalytic activity; purchased Enzyme Research Laboratories
T2 sequence (P00748 373-615 limits assumed): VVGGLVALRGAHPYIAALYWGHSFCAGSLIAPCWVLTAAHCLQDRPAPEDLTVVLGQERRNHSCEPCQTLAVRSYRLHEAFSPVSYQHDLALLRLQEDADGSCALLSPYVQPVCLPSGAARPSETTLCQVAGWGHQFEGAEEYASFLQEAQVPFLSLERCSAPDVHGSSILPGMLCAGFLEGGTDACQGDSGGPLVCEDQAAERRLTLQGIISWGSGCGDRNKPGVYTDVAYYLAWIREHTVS
T2 sequence (P00748 20-372 partner limits assumed): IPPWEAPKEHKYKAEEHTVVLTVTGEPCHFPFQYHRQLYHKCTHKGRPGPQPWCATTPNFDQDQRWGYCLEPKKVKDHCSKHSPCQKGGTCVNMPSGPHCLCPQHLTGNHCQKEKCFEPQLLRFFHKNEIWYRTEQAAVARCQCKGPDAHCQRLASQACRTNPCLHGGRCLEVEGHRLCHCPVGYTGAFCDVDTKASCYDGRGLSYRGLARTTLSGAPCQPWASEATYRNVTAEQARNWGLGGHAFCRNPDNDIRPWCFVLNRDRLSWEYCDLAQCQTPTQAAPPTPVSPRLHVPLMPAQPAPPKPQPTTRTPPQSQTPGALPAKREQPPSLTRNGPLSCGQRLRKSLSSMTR
The experiment in a line: Determination of FXIIa inhibition (fluorogenic substrate H-DPro-Phe-Arg-AFC, IC50 assay). As to conditions: substrate at Km concentration, 25° C.; category scale; read-out: Human FXII IC50 (nm). In a few lines: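 At substrate Km and 25° C., the rate of AFC release from H-DPro-Phe-Arg-AFC by human Factor XIIa was followed for 5 min across compound concentrations. Inhibition was derived as percent of uninhibited rate, giving IC50.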

For another assay, the target named is KLK1 (Homo sapiens, UniProt P06870). The experiment in a line: Related protease inhibition: KLK1 (fluorogenic substrate at Km). As to conditions: class symbols per Table 18. The protocol:
as §1

T1 sequence (P03952 391-638 limits assumed): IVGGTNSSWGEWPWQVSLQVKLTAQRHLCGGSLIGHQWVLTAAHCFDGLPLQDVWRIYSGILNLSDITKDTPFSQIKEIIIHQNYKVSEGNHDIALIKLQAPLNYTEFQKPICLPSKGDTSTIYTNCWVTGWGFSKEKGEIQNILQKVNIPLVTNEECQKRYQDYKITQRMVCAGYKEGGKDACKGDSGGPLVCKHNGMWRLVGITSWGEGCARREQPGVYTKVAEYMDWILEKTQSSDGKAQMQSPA
T1 sequence (P03952 20-390 partner limits assumed): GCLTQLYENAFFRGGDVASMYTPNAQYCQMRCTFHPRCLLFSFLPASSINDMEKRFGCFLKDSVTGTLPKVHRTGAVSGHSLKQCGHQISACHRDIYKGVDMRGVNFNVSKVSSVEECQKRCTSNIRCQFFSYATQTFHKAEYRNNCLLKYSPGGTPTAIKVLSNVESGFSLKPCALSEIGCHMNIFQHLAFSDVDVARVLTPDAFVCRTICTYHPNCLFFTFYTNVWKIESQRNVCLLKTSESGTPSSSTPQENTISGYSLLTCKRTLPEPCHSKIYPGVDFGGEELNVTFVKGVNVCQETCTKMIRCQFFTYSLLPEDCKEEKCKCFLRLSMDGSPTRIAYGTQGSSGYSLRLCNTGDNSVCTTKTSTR
Chain of KLK1 (P06870 25-262): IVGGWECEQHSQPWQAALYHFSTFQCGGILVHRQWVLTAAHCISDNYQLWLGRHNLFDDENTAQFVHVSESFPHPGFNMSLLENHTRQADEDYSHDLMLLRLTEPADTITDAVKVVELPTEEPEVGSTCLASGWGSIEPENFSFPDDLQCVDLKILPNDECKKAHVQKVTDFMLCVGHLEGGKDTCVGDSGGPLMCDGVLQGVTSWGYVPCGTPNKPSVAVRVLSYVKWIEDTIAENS

What is called IC50 is the point on the concentration scale where inhibition reaches its midpoint. `Clc1cc2c(NCC34CC(COc5ccn6ccnc6c5)(CO3)C4)ccnc2[nH]1` [Example 6606, 2-chloro-N-((4-((imidazo[1,2-a]pyridin-7-yloxy)methyl)-2-oxabicyclo[2.1.1]hexan-1-yl)methyl)-1H-pyrrolo[2,3-b]pyridin-4-amine]: the half-maximal inhibitory concentration (IC50) was more than 40 µM on Plasma Kallikrein and 1 to 3 µM on Human Factor XIIa.

With `Nc1nccc2c(NCC34CC(COC5CCc6nccn6C5)(CO3)C4)cccc12` (stereo not shown) [Example 6610, N5-((4-(((5,6,7,8-tetrahydroimidazo[1,2-a]pyridin-6-yl)oxy)methyl)-2-oxabicyclo[2.1.1]hexan-1-yl)methyl)isoquinoline-1,5-diamine], the figures for the 50% inhibitory concentration (IC50) at Plasma Kallikrein and at Human Factor XIIa were more than 40 µM and 0.3 to 1 µM, respectively.

Turning to `Clc1cc2c(NCC34CC(COc5ccc6nccn6c5)(CO3)C4)ccnc2[nH]1` [Example 6611, 2-chloro-N-((4-((imidazo[1,2-a]pyridin-6-yloxy)methyl)-2-oxabicyclo[2.1.1]hexan-1-yl)methyl)-1H-pyrrolo[2,3-b]pyridin-4-amine], the concentration for half-maximal inhibition (IC50) at Plasma Kallikrein was more than 40 µM; at Human Factor XIIa it was 1 to 3 µM.

As for `Nc1nccc2c(NCC34CC(COc5ccc6nccn6n5)(CO3)C4)cccc12` [Example 6612, N5-((4-((imidazo[1,2-b]pyridazin-6-yloxy)methyl)-2-oxabicyclo[2.1.1]hexan-1-yl)methyl)isoquinoline-1,5-diamine], the IC50 at Plasma Kallikrein was more than 40 µM; at Human Factor XIIa it was 1 to 3 µM.

`Nc1nccc2c(OCC34CC(CNc5ccc6nccn6c5)(CO3)C4)cccc12` [Example 6619, 5-((4-((imidazo[1,2-a]pyridin-6-ylamino)methyl)-2-oxabicyclo[2.1.1]hexan-1-yl)methoxy)isoquinolin-1-amine]: the 50% inhibitory concentration (IC50) on Human Factor XIIa was 0.3 to 1 µM; against KLK1, 10 to 40 µM.

As to `Cc1cc2nccn2cc1OCC12COC(CNc3cccc4c(N)nccc34)(C1)C2` [Example 6622, N5-((4-(((7-methylimidazo[1,2-a]pyridin-6-yl)oxy)methyl)-2-oxabicyclo[2.1.1]hexan-1-yl)methyl)isoquinoline-1,5-diamine], the results for the half-maximal inhibitory concentration (IC50) on Human Factor XIIa and at KLK1 were 0.01 to 0.1 µM and 1 to 3 µM, respectively.

With `CC1(C)OC2(CNc3cccc4c(N)nccc34)CC1(COc1ccc3nccn3c1)C2` [Example 7703, N5-((4-((imidazo[1,2-a]pyridin-6-yloxy)methyl)-3,3-dimethyl-2-oxabicyclo[2.1.1]hexan-1-yl)methyl)isoquinoline-1,5-diamine], the IC50 was more than 40 µM at Plasma Kallikrein and 0.1 to 0.3 µM on Human Factor XIIa.

On to `CC1(C)OC2(COc3cccc4c(N)nccc34)CC1(COc1ccc3nccn3c1)C2` [Example 7704, 5-((4-((imidazo[1,2-a]pyridin-6-yloxy)methyl)-3,3-dimethyl-2-oxabicyclo[2.1.1]hexan-1-yl)methoxy)isoquinolin-1-amine], for which the IC50 is more than 40 µM on Plasma Kallikrein and 0.3 to 1 µM on Human Factor XIIa.

With `Nc1nccc2c(N3CC4(CC(OCc5ccn6ccnc6c5)C4)C3)cccc12` [Example 8801, 5-(6-(imidazo[1,2-a]pyridin-7-ylmethoxy)-2-azaspiro[3.3]heptan-2-yl)isoquinolin-1-amine], the half-maximal inhibitory concentration (IC50) on Plasma Kallikrein is more than 40 µM; on Human Factor XIIa it was 10 to 40 µM.

In the case of `Nc1nccc2c(N3CCC4(CC(OCc5ccn6ccnc6c5)C4)C3)cccc12` (stereo not shown) [Example 8803, 5-(2-(imidazo[1,2-a]pyridin-7-ylmethoxy)-6-azaspiro[3.4]octan-6-yl)isoquinolin-1-amine], the IC50 was more than 40 µM at Plasma Kallikrein and 1 to 3 µM on Human Factor XIIa.

As to `Nc1nccc2c(N3CCC4(CC(OCc5ccn6ccnc6c5)C4)C3)cccc12` (stereo not drawn) [Example 8804, 5-(cis*-2-(imidazo[1,2-a]pyridin-7-ylmethoxy)-6-azaspiro[3.4]octan-6-yl)isoquinolin-1-amine], the IC50 is more than 40 µM on Plasma Kallikrein and 1 to 3 µM on Human Factor XIIa.

With `Nc1nccc2c(N3CCC4(CC(OCc5ccn6ccnc6c5)C4)C3)cccc12` (stereo not drawn) [Example 8805, 5-(trans*-2-(imidazo[1,2-a]pyridin-7-ylmethoxy)-6-azaspiro[3.4]octan-6-yl)isoquinolin-1-amine], the results for the IC50 at Plasma Kallikrein and at Human Factor XIIa were more than 40 µM and 1 to 3 µM, respectively.

In the case of `Nc1nccc2c(N3CC4(CC(COc5ccc6nccn6c5)C4)C3)cccc12` [Example 8808, 5-(6-((imidazo[1,2-a]pyridin-6-yloxy)methyl)-2-azaspiro[3.3]heptan-2-yl)isoquinolin-1-amine], the figures for the IC50 on Plasma Kallikrein and at Human Factor XIIa were more than 40 µM and 10 to 40 µM, respectively.

As to `Nc1nccc2c(N3CC4(CCC4OCc4ccn5ccnc5c4)C3)cccc12` (stereo not shown) [Example 9001, 5-(5-(imidazo[1,2-a]pyridin-7-ylmethoxy)-2-azaspiro[3.3]heptan-2-yl)isoquinolin-1-amine], the results for the half-maximal inhibitory concentration (IC50) at Plasma Kallikrein and at Human Factor XIIa were more than 40 µM and 10 to 40 µM, respectively.

As to `Nc1nccc2c(NCC34CC(COC5CCn6ccnc6C5)(CCO3)C4)cccc12` (stereo not shown) [Example 10903, N5-((5-(((5,6,7,8-tetrahydroimidazo[1,2-a]pyridin-7-yl)oxy)methyl)-2-oxabicyclo[3.1.1]heptan-1-yl)methyl)isoquinoline-1,5-diamine], the IC50 is more than 4 µM at Plasma Kallikrein and 0.3 to 1 µM at Human Factor XIIa.

For `Nc1nccc2c(NCC34CC(COC5CCc6nccn6C5)(CCO3)C4)cccc12` (stereo not shown) [Example 10908, N5-((5-(((5,6,7,8-tetrahydroimidazo[1,2-a]pyridin-6-yl)oxy)methyl)-2-oxabicyclo[3.1.1]heptan-1-yl)methyl)isoquinoline-1,5-diamine], the IC50 on Plasma Kallikrein was more than 40 µM; on Human Factor XIIa, 0.3 to 1 µM.

For `Clc1cc2c(NCC34CC(COc5ccc6nccn6c5)(CCO3)C4)ccnc2[nH]1` [Example 10909, 2-Chloro-N-[[5-(imidazo[1,2-a]pyridin-6-yloxymethyl)-2-oxabicyclo[3.1.1]heptan-1-yl]methyl]-1H-pyrrolo[2,3-b]pyridin-4-amine], the IC50 on Plasma Kallikrein is more than 40 µM; on Human Factor XIIa, 1 to 3 µM.

In the case of `Nc1nccc2c(NCC34CC(COc5ccc6nnc(C(F)F)n6n5)(CCO3)C4)cccc12` [Example 10910, N5-((5-(((3-(difluoromethyl)-[1,2,4]triazolo[4,3-b]pyridazin-6-yl)oxy)methyl)-2-oxabicyclo[3.1.1]heptan-1-yl)methyl)isoquinoline-1,5-diamine], the half-maximal inhibitory concentration (IC50) on Plasma Kallikrein is more than 40 µM; on Human Factor XIIa it was 0.1 to 0.3 µM.

Take `Cn1cccc(OCC23CCOC(CNc4cccc5c(N)nccc45)(C2)C3)c1=O` [Example 10911, 3-((1-(((1-aminoisoquinolin-5-yl)amino)methyl)-2-oxabicyclo[3.1.1]heptan-5-yl)methoxy)-1-methylpyridin-2(1H)-one]: the IC50 on Plasma Kallikrein was more than 40 µM; at Human Factor XIIa, 3 to 10 µM.

Take `Nc1nccc2c(NCC34CC(COc5ncccn5)(CCO3)C4)cccc12` [Example 10912, N5-((5-((pyrimidin-2-yloxy)methyl)-2-oxabicyclo[3.1.1]heptan-1-yl)methyl)isoquinoline-1,5-diamine]: the IC50 was more than 40 µM at Plasma Kallikrein and 10 to 40 µM on Human Factor XIIa.

On to `Nc1nccc2c(NCC34CC(COc5ccccn5)(CCO3)C4)cccc12` [Example 10914, N5-((5-((pyridin-2-yloxy)methyl)-2-oxabicyclo[3.1.1]heptan-1-yl)methyl)isoquinoline-1,5-diamine], for which the values for the concentration for half-maximal inhibition (IC50) at Plasma Kallikrein and on Human Factor XIIa were more than 40 µM and 3 to 10 µM, respectively.

Turning to `Nc1nccc2c(NCC34CC(Cn5ccccc5=O)(CCO3)C4)cccc12` [Example 10915, 1-((1-(((1-aminoisoquinolin-5-yl)amino)methyl)-2-oxabicyclo[3.1.1]heptan-5-yl)methyl)pyridin-2(1H)-one], the IC50 at Plasma Kallikrein is more than 40 µM; on Human Factor XIIa, 10 to 40 µM.

`Nc1nccc2c(NCC34CN(C(=O)OCc5ccccc5)C(C(=O)N5CCn6c(nnc6C(F)(F)F)C5)(C3)C4)cccc12` [Example 13002, benzyl 4-(((1-aminoisoquinolin-5-yl)amino)methyl)-1-(3-(trifluoromethyl)-5,6,7,8-tetrahydro-[1,2,4]triazolo[4,3-a]pyrazine-7-carbonyl)-2-azabicyclo[2.1.1]hexane-2-carboxylate]: the IC50 on Plasma Kallikrein was more than 40 µM; at Human Factor XIIa, 10 to 40 µM.
